Reference: ChEMBL document CHEMBL1157025, “Evaluation of aldose reductase inhibition and docking studies of 6'-nitro and 6',6''-dinitrorosmarinic acids” (Eur J Med Chem, 2010)

Biological target: Aldo-keto reductase family 1 member B1 (Homo sapiens, UniProt P15121)
Assay: Inhibition of aldose reductase

| IC50 [µM] | SMILES | IC50 (read-out: IC50) [µM] |
| --- | --- | --- |
| – | O=C(/C=C/c1ccc(O)c(O)c1)O[C@H](Cc1cc(O)c(O)cc1[N+](=O)[O-])C(=O)O | 1.84 |
| – | O=C(/C=C/c1cc(O)c(O)cc1[N+](=O)[O-])O[C@H](Cc1cc(O)c(O)cc1[N+](=O)[O-])C(=O)O | 0.741 |
| 3.91 | O=C(/C=C/c1ccc(O)c(O)c1)O[C@H](Cc1ccc(O)c(O)c1)C(=O)O [ROSMARINIC ACID] | – |
